These compounds were tested on ornithine decarboxylase (ODC) (assay: Ornithine decarboxylase (ODC) assay: inhibition of TPA induction of ODC activity). Details: concentration of the test compound which causes 60% inhibition in the ODC assay (TPA-induced ODC activity).
Format: biochemical
Source text: A classic measure of retinoic acid activity involves measuring the effects of retinoic acid on ornithine decarboxylase. The original work on the correlation between retinoic acid and a decrease in cell proliferation was done by Verma & Boutwell, Cancer Research, 1977, 37, 2196-2201. That reference discloses that ornithine decarboxylase (ODC) activity increased precedent to polyamine biosynthesis. It has been established elsewhere that increases in polyamine synthesis can be correlated or associated with cellular proliferation. Thus, if ODC activity could be inhibited, cell hyperproliferation could be modulated. Although all cases for ODC activity increases are unknown, it is known that 12-0-tetradecanoylphorbol-13-acetate (TPA) induces ODC activity. Retinoic acid inhibits this induction of ODC activity by TPA. […] “IC60” is that concentration of the test compound which causes 60% inhibition in the ODC assay. By analogy, “IC80”, for example, is that concentration of the test compound which causes 80% inhibition in the ODC assay.
Table 1 discloses the activity of certain exemplary compounds of the invention in the above-described oinithine decarboxylase (ODC) assay.

Question: How did the “IC60” value turn out when `CCOC(=O)c1ccc(C#C/C=C/C2=C(C)CCCC2OC(C)=O)cc1` (single isomer, unassigned) [Compound 3a, Ethyl (−)-(E)-4-(4-(6-Acetyloxy-2-methylcyclohex-1-enyl)but-3-en-1-ynyl)benzoate] was run?
Answer: The value was 0.52 nM.

Question: For `CCOC(=O)c1ccc(C#C/C=C/C2=C(C)CCCC2OC(C)=O)cc1` (single isomer, unassigned) [Compound 3b, Ethyl (+)-(E)-4-(4-(6-Acetyloxy-2-methylcyclohex-1-enyl)but3-en-1-ynyl)benzoate], which “IC60” value is on record?
Answer: The value was 4.3 nM.

Question: With `CCOC(=O)c1ccc(C#C/C=C/C2=C(C)CCCC2OC(=O)C(C)(C)C)cc1` (single isomer, unassigned) [Compound 6a, Ethyl (−)-(E)-4-(4-(6-(2,2-Dimethylpropanoyl)oxy-2-methylcyclohex-1-enyl)but-3-ene-1-ynyl)benzoate] as the compound, how does the “IC60” value read?
Answer: Its value is 5.1 nM.

Question: Which “IC60” value does the source give for `CCOC(=O)c1ccc(C#C/C=C/C2=C(C)CCCC2OC(=O)C(C)(C)C)cc1` (single isomer, unassigned) [Compound 6b, Ethyl (+)-(E)-4-(4-(6-(2,2-Dimethylpropanoyl)oxy-2-methylcyclohex-1-enyl)but-3-ene-1-ynyl)benzoate] here?
Answer: Its value is 124 nM.

Question: Which “IC60” value does the source give for `CCOC(=O)c1ccc(C#C/C=C/C2=C(C)CCCC2OC(=O)CC)cc1` (stereo not drawn) [Compound 4a, Ethyl (−)-(E)-4-(4-(6-Propionyloxy-2-methylcyclohex-1-enyl)but-3-en-1-ynyl)benzoate] here?
Answer: Its value is 20.9 nM.

Question: With `CCOC(=O)c1ccc(C#C/C=C/C2=C(C)CCCC2OC(=O)C(C)C)cc1` (stereo not drawn) [Compound 5b, Ethyl (+)-(E)-4-(4-(6-iso-Butyryloxy-2-methyicyclohex-1-enyl)but-3-ene-1-ynyl)benzoate] as the compound, how does the “IC60” value read?
Answer: The value was 234 nM.

Question: How did the “IC60” value turn out when `CCOC(=O)c1ccc(C#C/C=C/C2=C(C)CCCC2OC(=O)c2ccccc2)cc1` (stereo not drawn) [Compound 7a, Ethyl (−)-(E)-4-(4-(6-Benzoyloxy-2-methylcyclohex-1-enyl)but-3-ene-1-ynyl)benzoate] was run?
Answer: The value was 8.6 nM.

Question: For `CCOC(=O)c1ccc(C#CC=CC2=C(C)CCCC2=NOC)cc1` [Compound 10], which “IC60” value is on record?
Answer: The value was 2.4 nM.

Question: For `CCOC(=O)c1ccc(C#CC=CC2=C(C)CCCC2=NOCc2ccccc2)cc1` [Compound 11], which “IC60” value is on record?
Answer: Its value is 10.3 nM.

Question: How did the “IC60” value turn out when `CCOC(=O)C=C1CCCC(C)=C1C=CC#Cc1ccc(C(=O)OCC)cc1` [Compound 12, Ethyl 4-(4-(6-Ethoxycarbonylmethylene-2-methylcyclohex-1-enyl)but-3-en-1-ynyl)benzoate] was run?
Answer: Its value is 7.8 nM.

Same assay, conditions: concentration of the test compound which causes 60% inhibition in the ODC assay (TPA-induced ODC activity); listed as Sa

Question: For `CCOC(=O)c1ccc(C#C/C=C/C2=C(C)CCCC2OC(=O)C(C)C)cc1` (stereo not drawn) [Compound 5a, Ethyl (−)-(E)-4-(4-(6-iso-Butyryloxy-2-methylcyclohex-1-enyl)but-3-ene-1-ynyl)benzoate], which “IC60” value is on record?
Answer: The value was 15.7 nM.
